Data published in patent US20210395327A1, “Growth Hormone-Releasing Hormone Antagonists and Uses Thereof” (United States Government As Represented By The Department …, priority 2019, published 2021).
Non-standard residues stand in square brackets, D forms with d. Residues, ends and D or L forms follow the SMILES beside them. *: point of attachment. Phenylacetyl(2,3,4,5,6-F5) = O=C(Cc1c(F)c(F)c(F)c(F)c1F)*; Phe(F5) = N[C@@H](Cc1c(F)c(F)c(F)c(F)c1F)C(=O)O; hArg = N=C(N)NCCCC[C@H](N)C(=O)O; 12Ado = NCCCCCCCCCCCC(=O)O; Nle = CCCC[C@H](N)C(=O)O; Orn = NCCC[C@H](N)C(=O)O; Abu = CC[C@H](N)C(=O)O; PhAc = O=C(Cc1ccccc1)*

What was measured:
[1] = test system: lung cancer H460 xenograft; experiment: Xenograft tumor growth in nude mice, H460; type: in vivo; details: Table 4H, Lung Ca H460, 4 weeks, 5 μg/day s.c.; for % Inhibition: vs control
Protocol: (§1) The peptides' activity was compared with GHRH antagonist MIA-602. All statistical analyzses were performed from comparing GHRA antagonists to non-treated tumor (control).
(§2) Peptides and chemicals. GHRH antagonists MIA-602 and AVR-GHRH antagonists (see Table 2 above) were synthesized by solid phase methods and purified by HPLC. The peptides were dissolved in DMSO and further diluted in 10% 1,2-propanediol. The final concentration of peptides was 50 µg/ml in 10% 1,2-propanediol containing 0.1% of DMSO.
(§3) Cell culture. Human cancer cell lines including pancreatic (PANC-1 and CFPAC-1), lung (HCC827 and H460), stomach (NCI-N87), prostate (PC3), brest (MX-1 and HCC-1806), colorectal (HT-29), and ovarian (SK-OV-3 and OVCAR-3) were obtained from the American Type Culture Collection (ATCC) and cultured at 37° C. in a humidified 95% air/5% CO2 atmosphere in the medium recommended by ATCC.
(§4) Xenograft models of human cancers in nude mice. Female athymic (NCr nu/nu) nude mice, 5- to 6-weeks-old, obtained from the Envigo labs (Tampa, Fla.), were housed in laminar airflow cabinets under pathogen-free conditions with a 12-h light/12-h dark schedule, and were fed autoclaved standard chow and water. To generate mice with xenografted tumors, tumor xenografts were initiated by subcutaneous (s.c.) injection of 107 human cancer cells into female nude mice. After about 4 weeks the resulting tumors were dissected and collected after removing necrosis tissues. The tumors were then cut into particles with size of 3 mm3 and transplanted s.c. by trocar needle into experimental animals. When tumors grew to the size of 50-60 mm3 (by volume), mice were randomized into groups and treated daily for 4-8 weeks by subcutaneous administration of 5 μg of GHRH antagonists MIA-602 or AVR-compounds (2-10 μg as indicated), or vehicle solutions (0.1% DMSO in 10% 1,2-propanediol) respectively. Tumor sizes were measured weekly.
(§5) Statistical analysis. One-way ANOVA followed by Bonferroni comparison were performed. Data are expressed as Mean±SEM. To determine statistical significance between animal groups, two-tailed Student's t-test was conducted. Differences were considered significant when p<0.05.
(§6) Results. […] FIG. 1A-N represents in vivo inhibition of tumor growth during the treatment with GHRH antagonist MIA-602 and selected AVR antagonists in nude mice xenografted with various human tumors including pancreatic cancer PANC-1 (FIG. 1A) and CFPAC-1 (FIG. 1I); lung cancer HCC827 (FIGS. 1B, C) and H460 (FIG. 1H); stomach cancer N87 (FIGS. 1D-F); colon cancer HT-29 (FIG. 1G); breast cancer MX-1 and HCC-1806 (FIGS. 1J, K); ovarian cancer SK-OV-3 and OVACAR-3 (FIGS. 1 L, M) and prostate cancer PC3 (FIG. 1N). See also Table 5.

[2] = test system: breast cancer MX-1 xenograft; experiment: Xenograft tumor growth in nude mice, MX-1; type: in vivo; details: Table 4J, Breast Ca MX-1, 4 weeks, 5 μg/day s.c.; for % Inhibition: vs control
Protocol: as §1, §2, §3, §4, §5, §6

MX-1 breast cancer cells = experiment: In vitro cell viability, MX-1; type: cell-based, human; details: for In vitro relative inhibitory potency in comparison to MIA-602, MX-1: Table 3B, 5 μM for 72 H, MIA-602 = 1
Procedure, shortened: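 Viability by CellTiter 96 aqueous one solution (MTS) after 72 h exposure to antagonist at 5 μM (some at 2 μM), following 24 h starvation in 0.5% FBS. Results given as percentage inhibition relative to MIA602.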

[3] = test system: pancreatic cancer PANC-1 xenograft; experiment: Xenograft tumor growth in nude mice, PANC-1; type: in vivo; details: Table 4A, Pancreatic Ca PANC-1, 7 weeks; for % Inhibition: vs control
Protocol: as §1, §2, §3, §4, §5, §6

[4] = test system: breast cancer HCC-1806 xenograft; experiment: Xenograft tumor growth in nude mice, HCC-1806; type: in vivo; details: Table 4K, Breast Ca HCC-1806, 5 weeks, 5 μg/day s.c.; for % Inhibition: vs control
Protocol: as §1, §2, §3, §4, §5, §6

[5] = test system: SK-OV-3 ovarian cancer cells; experiment: In vitro cell viability, SK-OV-3; type: cell-based, human; details: Table 3B; * at 2 μM for 72 H; MIA-602 = 1
Protocol: The inhibitory effects of the various synthesized GHRH antagonists were tested in cell proliferation assays in various human cancer cell lines including stomach cancer (KATOIII, N87), colon cancer (HT-29), urothelial cancer (J82, RT4), pancreatic cancer (PANC-1, CFPAC-1), prostatic cancer (PC3), breast cancer (MX-1, HCC1806), ovarian cancer (SK-OV-3, OVCAR-3) and lung cancer (HCC827, H460).
as §3, with “(NCI-N87 and KATOIII), urothelial (J82, RT4), prostatic” for “(NCI-N87), prostate”, “breast” for “brest”, “HCC 1806),” for “HCC-1806),”
In vitro cell viability. Cell viability was analyzed as follows: cancer cells including pancreatic (PANC-1 and CFPAC-1), lung (HCC827 and H460), stomach (NCI-N87 and KATOIII), urothelial (J82, RT4), prostatic (PC3) and breast (MX-1 and HCC 1806), colorectal (HT-29) and ovarian (SK-OV-3 and OVCAR-3) were grown on 96 well plates to ˜60% confluence, the cells were starved for 24 h in culture medium containing 0.5% FBS. Cells were then treated with GHRH antagonists MIA602 AVR compounds at concentrations of 1, 2.5 or 5 μM, or vehicle (0.1% DMSO) in quintuplicates for 72 hours. The medium was replaced every 48 hours. Cell viability was measured using CellTiter 96 aqueous one solution kit (Promega). Inhibitory effects of tested AVR compounds in comparison to that of MIA602 are presented as inhibitory potency.
Inhibitory effects of selected AVR compounds in comparison to that of MIA602 are presented as inhibitory potency (e.g., percentage of inhibition). […] The cell lines tested including lung cancer HCC827 (FIG. 2A), pancreatic cancer CFPAC-1 (FIG. 2B), stomach cancer N87 (FIG. 2C), colon cancer HT-29 (FIG. 2D), breast cancers MX-1 and HCC1806 (FIGS. 2 E, F). […]

[6] = test system: pancreatic cancer CFPAC-1 xenograft; experiment: Xenograft tumor growth in nude mice, CFPAC-1; type: in vivo; details: Table 4I, Pancreatic Ca CFPAC-1, 7 weeks; for % Inhibition: vs control
Protocol: as §1, §2, §3, §4, §5, §6

Row | Structure (SMILES) | Tumor Growth % [1] | % Inhibition [1] | Tumor Growth % [2] | % Inhibition [2] | In vitro relative inhibitory potency in comparison to MIA-602, MX-1 (MX-1 breast cancer cells) | Tumor Growth % ([3]; 2.5 μg/day s.c.) | % Inhibition ([3]; 2.5 μg/day s.c.) | Tumor Growth % ([3]; 5 μg/day s.c.) | % Inhibition ([3]; 5 μg/day s.c.) | Tumor Growth % [4] | % Inhibition [4] | In vitro relative inhibitory potency in comparison to MIA-602, SKOV-3 [5] | Tumor Growth % ([6]; 2.5 μg/day s.c.) | % Inhibition ([6]; 2.5 μg/day s.c.) | Tumor Growth % ([6]; 5 μg/day s.c.) | % Inhibition ([6]; 5 μg/day s.c.) | relative inhibitory potency in comparison to MIA-602, Breast MX-1 (MX-1 breast cancer cells; antagonist 5 μM for 72 h, cell proliferation assay, MIA602 = 1)
1 | CCCC[C@H](NC(=O)[C@@H](NC(=O)[C@H](CC(=O)O)NC(=O)[C@H](CCC(N)=O)NC(=O)[C@H](CC(C)C)NC(=O)[C@H](CC(C)C)NC(=O)[C@H](CCCCN)NC(=O)[C@H](CCCNC(=N)N)NC(=O)[C@H](C)NC(=O)[C@H](CO)NC(=O)[C@H](CC(C)C)NC(=O)[C@H](CCC(N)=O)NC(=O)[C@H](CC)NC(=O)[C@H](CC(C)C)NC(=O)[C@@H](NC(=O)[C@H](CCCCN)NC(=O)[C@H](CCCNC(=N)N)NC(=O)[C@H](Cc1ccc(OC)cc1)NC(=O)[C@H](CCCCNC(=N)N)NC(=O)[C@H](C)NC(=O)[C@@H](NC(=O)[C@H](Cc1c(F)c(F)c(F)c(F)c1F)NC(=O)[C@@H](NC(=O)[C@H](C)NC(=O)[C@H](CC(=O)O)NC(=O)[C@@H](CCCNC(=N)N)NC(=O)[C@H](Cc1ccc(O)cc1)NC(=O)CCCCCCCCCCCNC(=O)Cc1c(F)c(F)c(F)c(F)c1F)[C@@H](C)CC)[C@@H](C)O)C(C)C)[C@@H](C)CC)C(=O)N[C@H](CCCNC(=N)N)C(=O)N[C@@H](CCCCNC(=N)N)C(=O)NCCCCCCCCCCCC(N)=O [AVR-352, 5FPhAC-Ada-Tyr-DArg-Asp-Ala-Ile-5FPhe-Thr-Ala-Har-Tyr(Me)-Arg-Lys-Val-Leu-Abu-Gln-Leu-Ser-Ala-Arg-Lys-Leu-Leu-Gln-Asp-Ile-Nle-DArg-Har-Ada-NH2] ({Phenylacetyl(2,3,4,5,6-F5)-12Ado}-Y[dR]DAI[Phe(F5)]TA[hArg]Y(Me)RKVL[Abu]QLSARKLLQDI[Nle][dR][hArg][12Ado]-NH2) | 1738.3% | 48.6% | 673.2% | 39.5% | 2.793 | 2073.0% | 22.4% | 1456.9% | 45.4% | 522.7% | 56.2% | 1.15* | 1616.9% | 18.0% | 1448.4% | 26.5% | 
2 | CCCC[C@H](NC(=O)[C@@H](NC(=O)[C@H](CC(=O)O)NC(=O)[C@H](CCC(N)=O)NC(=O)[C@H](CC(C)C)NC(=O)[C@H](CC(C)C)NC(=O)[C@H](CCCN)NC(=O)[C@H](Cc1c[nH]cn1)NC(=O)[C@H](C)NC(=O)[C@H](CO)NC(=O)[C@H](CC(C)C)NC(=O)[C@H](CCC(N)=O)NC(=O)[C@H](CC)NC(=O)[C@H](CC(C)C)NC(=O)[C@@H](NC(=O)[C@H](CCCN)NC(=O)[C@H](Cc1c[nH]cn1)NC(=O)[C@H](Cc1ccc(OC)cc1)NC(=O)[C@H](CCCCNC(=N)N)NC(=O)[C@H](C)NC(=O)[C@@H](NC(=O)[C@H](Cc1c(F)c(F)c(F)c(F)c1F)NC(=O)[C@@H](NC(=O)[C@H](C)NC(=O)[C@H](CC(=O)O)NC(=O)[C@@H](CCCNC(=N)N)NC(=O)[C@H](Cc1ccc(O)cc1)NC(=O)CCCCCCCCCCCNC(=O)Cc1ccccc1)[C@@H](C)CC)[C@@H](C)O)C(C)C)[C@@H](C)CC)C(=O)N[C@H](CCCNC(=N)N)C(=O)N[C@@H](CCCCNC(=N)N)C(N)=O [MIA-602, PhAC-Ada, Tyr D-Arg, Asp, Ala, Ile, 5FPhe, Thr, Ala, Har, Tyr(Me), His, Orn, Val, Leu, Abu, Gin, Leu, Ser, Ala, His, Om, Leu, Leu, Gin, Asp, Ile; Nle, D-Arg, Har NH2, reference compound] ({PhAc-12Ado}-Y[dR]DAI[Phe(F5)]TA[hArg]Y(Me)H[Orn]VL[Abu]QLSAH[Orn]LLQDI[Nle][dR][hArg]-NH2) | 1602.7% | 52.6% | 677.3% | 39.2% | 1 |  |  | 1572.7% | 41.1% | 529.4% | 55.7% | 1 |  |  | 1587.5% | 19.5% | 1
